Source: article PMC8921064 (Archives of Toxicology, 2022)

Experiments:
[1] = Human liver microsomal incubation, metabolite formation quantified by UPLC; settings: human, microsomes, pH 7.4
[2] = test system: human liver microsomes (HLM); assay: as above; settings: HLM, substrate Phenanthrene
[3] = Rat liver microsomal incubation, metabolite formation quantified by UPLC; settings: Sprague-Dawley, rat, microsomes, pH 7.4
[4] = test system: rat liver microsomes (RLM); assay: as above; settings: RLM, substrate Phenanthrene
[5] = test system: Salmonella typhimurium TA98; assay: Reverse mutation assay (Ames test), TA98
Experimental: Six concentrations of each compound were tested in triplicate in the absence and presence of 5% (v/v) S9-mix prepared from the livers of Aroclor 1254 treated Sprague–Dawley rats. The S9-mix contained 4 mM NADP, 5.8 mM glucose-6-phosphate, 0.1 M sodium phosphate pH 7.4, 8 mM MgCl2, 33 mM KCl and 5% S9 homogenate. Fresh bacterial cultures were prepared overnight to reach 10^9 cells/ml. The following solutions were pre-incubated in a rotating incubator at 70 rpm and 37 °C, and contained either 0.5 ml S9-mix (in case of S9 presence) or 0.5 ml 0.1 M potassium phosphate pH 7.4 (in case of S9 absence), 0.1 ml of a fresh bacterial culture (10^9 cells/ml) of TA98 or TA100, […] Top agar was melted and heated to 45 °C. After preincubation, the substrate solutions were added to 3 ml of the molten top agar and mixed by vortexing and the top agar mixture was poured onto a minimal glucose agar plate. After solidification of the top agar, the plates were incubated at 37 °C for 48 h. The number of revertant colonies per plate was automatically counted with the Instem Sorcerer Colony Counter (Staffordshire, UK). In the absence of S9-mix, 2-nitrofluorene (NF) and methylmethanesulfonate (MMS) were tested as positive controls for incubations with TA98 and TA100, respectively. In the presence of S9-mix, 2-aminoanthracene (2AA) was tested as a positive control in both TA98 and TA100. DMSO was tested as a solvent control in both tester strains.

[6] = test system: Salmonella typhimurium TA100; assay: Reverse mutation assay (Ames test), TA100
Experimental: Six concentrations of each compound were tested in triplicate in the absence and presence of 5% (v/v) S9-mix prepared from the livers of Aroclor 1254 treated Sprague–Dawley rats. The S9-mix contained 4 mM NADP, 5.8 mM glucose-6-phosphate, 0.1 M sodium phosphate pH 7.4, 8 mM MgCl2, 33 mM KCl and 5% S9 homogenate. Fresh bacterial cultures were prepared overnight to reach 10^9 cells/ml. The following solutions were pre-incubated in a rotating incubator at 70 rpm and 37 °C, and contained either 0.5 ml S9-mix (in case of S9 presence) or 0.5 ml 0.1 M potassium phosphate pH 7.4 (in case of S9 absence), 0.1 ml of a fresh bacterial culture (10^9 cells/ml) of TA98 or TA100, and 10–100 µg test compound. Top agar was melted and heated to 45 °C. After preincubation, the substrate solutions were added to 3 ml of the molten top agar and mixed by vortexing and the top agar mixture was poured onto a minimal glucose agar plate. After solidification of the top agar, the plates were incubated at 37 °C for 48 h. The number of revertant colonies per plate was automatically counted with the Instem Sorcerer Colony Counter (Staffordshire, UK). In the absence of S9-mix, 2-nitrofluorene (NF) and methylmethanesulfonate (MMS) were tested as positive controls for incubations with TA98 and TA100, respectively. In the presence of S9-mix, 2-aminoanthracene (2AA) was tested as a positive control in both TA98 and TA100. DMSO was tested as a solvent control in both tester strains.

[7] = test system: mouse skin; set-up: method as in Buening et al. [1979]; LaVoie et al. [1981]; settings: mouse skin painting; ref Buening et al. [1979]; LaVoie et al. [1981]; cited from earlier work
[8] = test system: Chinese hamster bone marrow cells; set-up: method as in Bayer [1978]; settings: in vivo exposure; ref Bayer [1978]; cited from earlier work
[9] = test system: S. typhimurium TA98; settings: ref Bucker et al. [1979], Wood et al. [1979]; cited from earlier work
[10] = test system: S. typhimurium TA100; settings: ref Bucker et al. [1979], Wood et al. [1979]; cited from earlier work

c1ccc2c(c1)ccc1ccccc12 [Phenanthrene]
microsomal CLint [1]: 24.2 µL/min/mg | Vmax, formation of 1,2-Dihydro-phenanthrene-diol RT = 3.57 min [2]: 152.5 ± 14.4 pmol/min/mg microsomal protein | Vmax, formation of 1-Phenanthrol RT = 6.31 min [2]: 125.2 ± 5.4 pmol/min/mg microsomal protein | Vmax, formation of 3,4-Dihydro-phenanthrene-diol RT = 2.13 min [2]: 61.5 ± 6.3 pmol/min/mg microsomal protein | Vmax, formation of 3,4-Dihydro-phenanthrene-diol RT = 2.24 min [2]: 6.0 ± 0.3 pmol/min/mg microsomal protein | Vmax, formation of 4-Phenanthrol RT = 6.55 min [2]: 18.0 ± 3.9 pmol/min/mg microsomal protein | Vmax, formation of 9,10-Dihydro-phenanthene-diol RT = 3.38 min [2]: 287.8 ± 17.1 pmol/min/mg microsomal protein | microsomal CLint [3]: 7.3 µL/min/mg | Vmax, formation of 1,2-Dihydro-phenanthrene-diol RT = 3.57 min [4]: 79.3 ± 6.5 pmol/min/mg microsomal protein | Vmax, formation of 1-Phenanthrol RT = 6.31 min [4]: 123.9 ± 19.2 pmol/min/mg microsomal protein | Vmax, formation of 3,4-Dihydro-phenanthrene-diol RT = 2.13 min [4]: 10.3 ± 1.8 pmol/min/mg microsomal protein | Vmax, formation of 3-Phenanthrol RT = 6.02 min [4]: 21.3 ± 2.0 pmol/min/mg microsomal protein | Vmax, formation of 4-Phenanthrol RT = 6.55 min [4]: 24.5 ± 5.5 pmol/min/mg microsomal protein | Vmax, formation of 9,10-Dihydro-phenanthene-diol RT = 3.28 min [4]: 9.8 ± 0.6 pmol/min/mg microsomal protein | Vmax, formation of 9,10-Dihydro-phenanthene-diol RT = 3.38 min [4]: 529.2 ± 43.2 pmol/min/mg microsomal protein | Increase in the number of revertants compared to the concurrent solvent control ([5]; TA98, presence of 5% S9-mix, 10–100 µg): No increases in the number of revertants were observed | Mutagenicity (conclusion) ([5]; TA98, positive if more than threefold over control): tested negative for mutagenicity | Increase in the number of revertants compared to the concurrent solvent control ([6]; TA100, presence of 5% S9-mix, 10–100 µg): No increases in the number of revertants were observed | Mutagenicity (conclusion) ([6]; TA100, positive if more than twofold over control): tested negative for mutagenicity | Tumor-initiating activity [7]: neither phenanthrene nor its monomethylated analogs | DNA adducts [8]: no phenanthrene DNA adducts could be detected | Mutagenicity [9]: Neither phenanthrene nor its dihydrodiol metabolites were found to be mutagenic | Mutagenicity [10]: Neither phenanthrene nor its dihydrodiol metabolites were found to be mutagenic
